This passage reports inhibition results from PMC8041284, “Tunable Methacrylamides for Covalent Ligand Directed Release Chemistry” (Journal of the American Chemical Society, 2021).

The test addresses BTK (Homo sapiens, UniProt Q06187). Briefly: biochemical.
Setting [1] is: read-out: BTK inhibition (%), 0.75 uM BTK, […] probe 3l, 15 min preincubation.

Like-named read-outs stand apart in the source and are kept apart here.

BTK, sequence (Q06187 402-655 limits assumed): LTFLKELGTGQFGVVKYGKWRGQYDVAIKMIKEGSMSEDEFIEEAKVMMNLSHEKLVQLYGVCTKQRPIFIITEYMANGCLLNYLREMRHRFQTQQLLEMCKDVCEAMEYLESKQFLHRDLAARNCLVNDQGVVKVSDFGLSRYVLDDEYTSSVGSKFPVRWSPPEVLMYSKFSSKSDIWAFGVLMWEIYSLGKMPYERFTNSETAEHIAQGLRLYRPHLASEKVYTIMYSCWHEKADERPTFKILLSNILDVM

On to `Cc1cnc(NC(=O)C2=C(O)c3ccccc3S(=O)(=O)N2C)s1` [PCM-0086060], for which the inhibition at 10 µM under setting [1] was -6.2%.

Consider `OCCN1C[C@H](O)[C@@H](O)[C@H](O)[C@H]1CO` [PCM-0086065], for which the inhibition at 10 µM under setting [1] is -23.3%. Turning to `COc1cc(C(=O)NS(=O)(=O)c2ccccc2C)ccc1Cc1cn(C)c2ccc(NC(=O)OC3CCCC3)cc12` [PCM-0086066], the inhibition at 10 µM under setting [1] was determined as 47.6%. Still for that read-out and setting: the same measure for `c1ccc2[nH]c(-c3cscn3)nc2c1` [PCM-0086067]: -17.1%; for `CN(Cc1ccc(C(C)(C)C)cc1)Cc1cccc2ccccc12` [PCM-0086068]: 62.3%. The same measure, in the same setting: the result for `CCc1cc(C(N)=S)ccn1` [PCM-0086071] reads -14.8%; that for `CN1C(C(=O)Nc2ccccn2)=C(O)c2sccc2S1(=O)=O` [PCM-0086073], -6.9%. Same read-out and setting: the result for `CCCOc1ccc2nc(NC(=O)OC)[nH]c2c1` [PCM-0086075] reads 10.2%. Turning to `Cc1cccc(CN2CCN(C(c3ccccc3)c3ccc(Cl)cc3)CC2)c1` (stereo not drawn) [PCM-0086087], the inhibition at 10 µM under setting [1] was 67.2%. Regarding `CCOc1ccc(NC(C)=O)cc1` [PCM-0086095], under setting [1], the inhibition at 10 µM worked out at 5.5%. The same measure, in the same setting: the same measure for `Nc1nc(=O)n([C@@H]2CS[C@H](CO)O2)cc1F` [PCM-0086099]: -10.1%.

With `Cc1cnc(C(=O)O)c[n+]1[O-]` [PCM-0086103], the inhibition at 10 µM under setting [1] came out at 3.1%. In the case of `Nc1cc(C(Cl)=C(Cl)Cl)c(S(N)(=O)=O)cc1S(N)(=O)=O` [PCM-0086106], the inhibition at 10 µM under setting [1] is -3.9%. On to `CC(C)(Sc1cc(C(C)(C)C)c(O)c(C(C)(C)C)c1)Sc1cc(C(C)(C)C)c(O)c(C(C)(C)C)c1` [PCM-0086112], for which the inhibition at 10 µM under setting [1] came out at 0.8%. On the same count and under the same terms, the result for `OCCOCCN1CCN(C2=Nc3ccccc3Sc3ccccc32)CC1` [PCM-0086113] reads -4.7%; that for `CO[C@H]1/C=C/O[C@@]2(C)Oc3c(C)c(O)c4c(O)c(c(/C=N/N5CCN(C6CCCC6)CC5)c(O)c4c3C2=O)NC(=O)/C(C)=C\C=C\[C@H](C)[C@H](O)[C@@H](C)[C@@H](O)[C@@H](C)[C@H](OC(C)=O)[C@@H]1C` [PCM-0086116], 43.6%; that for `CCCN(CCC)S(=O)(=O)c1ccc(C(=O)O)cc1` [PCM-0086122], -4.7%. As to `NCC1OC(OC2C(N)CC(N)C(OC3OC(CO)C(O)C(N)C3O)C2O)C(N)CC1O` (stereo not drawn) [PCM-0086125], the inhibition at 10 µM under setting [1] was 21.3%. Same read-out and setting: the result for `NC[C@H]1O[C@H](O[C@H]2[C@H](O)[C@@H](O[C@H]3O[C@H](CO)[C@@H](O)[C@H](N)[C@H]3O)[C@H](N)C[C@@H]2N)[C@H](N)C[C@@H]1O` [PCM-0086125] reads -14.5%. Turning to `CC(=O)[C@H]1CC[C@H]2[C@@H]3CC=C4C[C@@H](O)CC[C@]4(C)[C@H]3CC[C@]12C` [PCM-0086127], the inhibition at 10 µM under setting [1] is -22.6%.

Turning to `CC(=O)SCC(Cc1ccccc1)C(=O)NCC(=O)OCc1ccccc1` (stereo not drawn) [PCM-0086128], the inhibition at 10 µM under setting [1] came to 3.1%.

For the molecule `CCOC(=O)[C@H](CCc1ccccc1)N[C@H]1CCc2ccccc2N(CC(=O)O)C1=O` [PCM-0086130], the inhibition at 10 µM under setting [1] was -24.9%. `Clc1ccc(Nc2nnc(Cc3ccncc3)c3ccccc23)cc1` [PCM-0086134]: the inhibition at 10 µM under setting [1] is -14.5%. Same read-out and setting: the same measure for `NC[C@H]1O[C@H](O[C@H]2[C@H](O)[C@@H](O[C@H]3O[C@H](CO)[C@@H](O)[C@H](N)[C@H]3O)[C@H](N)C[C@@H]2N)[C@H](O)[C@@H](O)[C@@H]1O` [PCM-0086137]: 23.8%. With `COc1cc([C@@H]2c3cc4c(cc3[C@@H](O[C@@H]3O[C@@H]5CO[C@@H](C)O[C@H]5[C@H](O)[C@H]3O)[C@H]3COC(=O)[C@H]23)OCO4)cc(OC)c1O` [PCM-0086140], under setting [1], the inhibition at 10 µM was -2.8%. Take `CNCC[C@@H](Oc1ccccc1C)c1ccccc1` [PCM-0086150]: the inhibition at 10 µM under setting [1] is 11.7%. As to `CN1CCN2c3ncccc3Cc3ccccc3C2C1` (stereo not drawn) [PCM-0086153], under setting [1], the inhibition at 10 µM turned out to be 12.5%. Turning to `Cc1ccc(S(=O)(=O)NC(=O)NN2CC3CCCC3C2)cc1` (stereo not drawn) [PCM-0086156], the inhibition at 10 µM under setting [1] is -2.3%. Same read-out and setting: the result for `O=c1[nH]c(=O)n([C@H]2C[C@H](O)[C@@H](CO)O2)cc1F` [PCM-0086169] reads -3.9%; that for `CCOc1cc(CC(=O)N[C@@H](CC(C)C)c2ccccc2N2CCCCC2)ccc1C(=O)O` [PCM-0086171], 17.1%; that for `NC(=O)C(c1ccccc1)(c1ccccc1)[C@@H]1CCN(CCc2ccc3c(c2)CCO3)C1` [PCM-0086175], 4.7%. On the same count and under the same terms, the same measure for `CC(C)(C#N)c1cc(Cn2cncn2)cc(C(C)(C)C#N)c1` [PCM-0086178]: -11%. In the case of `Cc1cccc(C)c1NC(=O)C1CCCCN1C` (stereo not drawn) [PCM-0086182], under setting [1], the inhibition at 10 µM was determined as 3.4%. Same read-out and setting: the same measure for `CO[C@H]1/C=C/O[C@@]2(C)Oc3c(C)c(O)c4c(O)c(c5c(nc6cc(C)ccn65)c4c3C2=O)NC(=O)/C(C)=C\C=C\[C@H](C)[C@H](O)[C@@H](C)[C@@H](O)[C@@H](C)[C@H](OC(C)=O)[C@@H]1C` [PCM-0086183]: 10.1%; for `O=c1[nH]c(=O)n([C@H]2C[C@H](O)[C@@H](CO)O2)cc1C(F)(F)F` [PCM-0086194]: 2.3%.

Consider `CN(Cc1cc(Br)cc(Br)c1N)C1CCCCC1` [PCM-0086201], for which the inhibition at 10 µM under setting [1] worked out at 29.6%. Still for that read-out and setting: the same measure for `C1N2CN3CN1CN(C2)C3` [PCM-0086204]: -8.6%; for `N#CC(c1ccc(Cl)cc1)c1c(Cl)cc(-n2ncc(=O)[nH]c2=O)cc1Cl` (stereo not drawn) [PCM-0086206]: -0.8%; for `COC(=O)Nc1nc2ccc([S+]([O-])c3ccccc3)cc2[nH]1` (stereo not drawn) [PCM-0086213]: 17.9%.

For the molecule `Nc1ccc(O)c(C(=O)O)c1` [PCM-0086222], under setting [1], the inhibition at 10 µM was -9%. As to `O=C(CCCCCCC(=O)Nc1ccccc1)NO` [PCM-0086223], the inhibition at 10 µM under setting [1] was -9%.

Turning to `CCOc1nc2cccc(C(=O)O)c2n1Cc1ccc(-c2ccccc2-c2nn[nH]n2)cc1` [PCM-0086226], the inhibition at 10 µM under setting [1] was found to be 24.1%.

On to `Nc1nc(F)nc2c1ncn2[C@@H]1O[C@H](CO)[C@@H](O)[C@@H]1O` [PCM-0086227], for which the inhibition at 10 µM under setting [1] was -19.5%. The same measure, in the same setting: the same measure for `Nc1nc(Cl)nc2c1ncn2[C@H]1C[C@H](O)[C@@H](CO)O1` [PCM-0086228]: -16.6%. As for `CCCc1nc(C)c2c(=O)[nH]c(-c3cc(S(=O)(=O)N4CCN(CC)CC4)ccc3OCC)nn12` [PCM-0086229], the inhibition at 10 µM under setting [1] is -10.9%. The same measure, in the same setting: the same measure for `OC(Cn1cncn1)(Cn1cncn1)c1ccc(F)cc1F` [PCM-0086230]: 9.3%; for `CCCc1cc(C(N)=S)ccn1` [PCM-0086237]: -11.7%. As for `O=S(=O)(O)CCS` [PCM-0086246], the inhibition at 10 µM under setting [1] was -3.1%. Still for that read-out and setting: the result for `CCn1cc(C(=O)O)c(=O)c2cc(F)c(N3CCNCC3)nc21` [PCM-0086249] reads 4.7%. As for `CN(C)CC/C=C1/c2ccccc2COc2ccc(CC(=O)O)cc21` [PCM-0086250], the inhibition at 10 µM under setting [1] turned out to be 8.3%. In the case of `CCC1(c2cccc(O)c2)CCCCN(C)C1` (stereo not drawn) [PCM-0086257], under “read-out: BTK inhibition (%)”, the inhibition at 10 µM turned out to be 7.8%. As for `CC1(C)O[C@@H]2[C@@H](CO[C@@]3(COS(N)(=O)=O)OC(C)(C)O[C@@H]23)O1` [PCM-0086260], under setting [1], the inhibition at 10 µM is -15.6%.

For `O=C1CCc2ccc(OCCCCN3CCN(c4cccc(Cl)c4Cl)CC3)cc2N1` [PCM-0086268], the inhibition at 10 µM under setting [1] is -10.9%. Still for that read-out and setting: the same measure for `C#C[C@]1(O)CC[C@H]2[C@@H]3CCc4cc(O)ccc4[C@H]3CC[C@@]21C` [PCM-0086269]: 26.5%; for `CC1(C)O[C@@H]2C[C@H]3[C@@H]4C[C@H](F)C5=CC(=O)C=C[C@]5(C)[C@@]4(F)[C@@H](O)C[C@]3(C)[C@]2(C(=O)CO)O1` [PCM-0086270]: -17.1%; for `C[C@@H]1CN(c2c(F)c(N)c3c(=O)c(C(=O)O)cn(C4CC4)c3c2F)C[C@H](C)N1` [PCM-0086271]: 2.3%. Same read-out and setting: the result for `CN(C)CCN(Cc1ccccc1)c1ccccn1` [PCM-0086274] reads 12.8%; that for `COc1ncnc(NS(=O)(=O)c2ccc(N)cc2)c1OC` [PCM-0086280], 0.8%. Regarding `O=S(=O)(O)c1cc(O)ccc1O` [PCM-0086281], under setting [1], the inhibition at 10 µM is 3.9%. For the molecule `C[C@]12CC[C@@H]3c4ccc(O)cc4CC[C@H]3[C@@H]1C[C@@H](O)[C@@H]2O` [PCM-0086283], under setting [1], the inhibition at 10 µM was determined as 5.4%. For the molecule `CCCCC[C@H](O)/C=C/[C@H]1[C@H](O)CC(=O)[C@@H]1CCCCCCC(=O)O` [PCM-0086285], the inhibition at 10 µM under setting [1] stood at 6.9%. For the molecule `O=C(O)c1cn(-c2ccc(F)cc2)c2cc(N3CCNCC3)c(F)cc2c1=O` [PCM-0086286], the inhibition at 10 µM under setting [1] was -3.4%. The same measure, in the same setting: the result for `Cc1cc(-n2c(=O)[nH]c(=O)n(C)c2=O)ccc1Oc1ccc(SC(F)(F)F)cc1` [PCM-0086289] reads -0.8%; that for `CCCCc1nc(Cl)c(CO)n1Cc1ccc(-c2ccccc2-c2nnn[nH]2)cc1` [PCM-0086291], -10.9%; that for `CN1[C@@H]2CC[C@H]1CC(OC(c1ccccc1)c1ccccc1)C2` (stereo partly drawn) [PCM-0086292], -3.1%. As to `CCCc1nc2c(C)cc(-c3nc4ccccc4n3C)cc2n1Cc1ccc(-c2ccccc2C(=O)O)cc1` [PCM-0086294], the inhibition at 10 µM under setting [1] is -10.9%. Still for that read-out and setting: the same measure for `c1ccc(-c2ccc(C(c3ccccc3)n3ccnc3)cc2)cc1` (stereo not drawn) [PCM-0086296]: 33.5%. The same measure, in the same setting: the same measure for `COC(=O)C1=C(C)NC(C)=C(C(=O)OC(C)C)C1c1cccc2nonc12` (stereo not drawn) [PCM-0086297]: -2.3%; for `N#Cc1ccc(C(c2ccc(C#N)cc2)n2cncn2)cc1` [PCM-0086304]: -2.1%; for `OC[C@H]1O[C@@H](Oc2ccc(O)cc2)[C@H](O)[C@@H](O)[C@@H]1O` [PCM-0086306]: -6.2%.

As for `CCOC(=O)[C@H](CCc1ccccc1)N[C@@H](C)C(=O)N1[C@H](C(=O)O)C[C@@H]2CCC[C@@H]21` [PCM-0086308], the inhibition at 10 µM under setting [1] is -3.9%. Still for that read-out and setting: the result for `Cc1nc2n(c(=O)c1CCN1CCC(c3noc4cc(F)ccc34)CC1)CCCC2` [PCM-0086311] reads 1.7%.
